# Laboratory results from patent publication US6352709B1, “Localized use of nitric oxide-adducts to prevent internal tissue damage” (NitroMed, Inc., priority 1993, dated 2002).
# Experiments:
# [1] = system: balloon-injured rabbit femoral artery; test: Neointimal proliferation after balloon injury of femoral artery (morphometry); type: in vivo
# Description: Femoral arteries were isolated and balloon injured as described below. pS-BSA or pS-NO-BSA were applied in a paired fashion directly into the arterial lumen for 15 minutes and then blood flow was re-established. […] Neointimal proliferation is reported as the absolute neointimal area in FIG. 5A and as a ratio of neointima/media in FIG. 5B in 4-6 segments from each artery. Data are expressed as mean +/− SEM and are derived from 15 vessels in the BSA and S-NO-BSA groups, 11 vessels in the PS-BSA group, 7 vessels in the PS-NO-BSA and SHAM groups, and 5 in the SNP group. *P<0.05, pS-NO-BSA vs. PS-BSA. +/+P<0.05 Sodium nitroprusside vs. pS-BSA for both FIGS. 5A and 5B.
# Animal Preparation: All animal preparations were performed within the institutional guidelines of the Brockton/West Roxbury Department of Veteran Affairs Medical Center and Boston University Medical Center, and in accordance with the guiding principles of the American Physiological Society. New Zealand white rabbits (3.5-4.2 kg) of either sex were premedicated with 5 mg/kg intramuscular (IM) xylazine hydrochlolide (Miles Pharmaceuticals, Shawnee Mission, Kans.), and 0.1 mg/kg subcutaneous (SC) atropine sulfate (Lyphomed, Deerfield, Ill.) fifteen minutes prior to the induction of anesthesia. Anesthesia was induced with 40 mg/kg IM ketamine hydrochloride (Fort Dodge Laboratories, Fort Dodge, Ind.) and 5 mg/kg IM acepromazine maleate (Aveco Company, Inc., Fort Dodge, Ind.). Additional doses of ketamine hydrochloride were administered as necessary to maintain anesthesia. For survival studies, 100,000 U penicillin G (Apothecon of Bristol-Myers Squibb, Princeton, N.J.), was administered IM perioperatively. The skin over the femoral arteries was next infiltrated with 1% lidocaine (Astra Pharmaceuticals, Inc., Westborough, Mass.) and the common femoral arteries were exposed from the inguinal ligament to the superficial femoral artery. Arteries were cleared of connective tissue, side branches were ligated, and the superficial femoral artery was suspended with silk ties. A 1.5-to-2.0 cm length of femoral artery was isolated from the circulation proximally and distally with neurosurgical microaneurysm clips. The superficial femoral-artery was cannulated with a 2F Fogarty balloon catheter (American Edwards Laboratories, Santa Ana, Calif.) that was passed into the isolated segment of femoral artery. The balloon was inflated with sufficient air to generate slight resistance and withdrawn three times. A 20 g angiocath was then inserted in the arteriotomy and 1 ml of 25.8 mg/ml PS-NO-BSA or 49.2 mg/ml S-NO-BSA was administered over 15 minutes. The contralateral femoral artery was prepared identically and an appropriate control (25.8 mglml pS-BSA, 49.2 mg/ml BSA or 0.66 mg/ml sodium nitroprusside) was administered. For binding studies, 0.5 ml of [^125I]-labeled nitrosylated albumin or control was administered. Following administration of the agent, the superficial femoral artery was ligated and flow reestablished. Sham-operated animals underwent surgical exposure and sidebranch ligation, but no balloon injury was performed or local delivery administered. The area of balloon injury was marked by surgical staples in the adjacent muscle fascia. For chronic studies, the incision was closed with subcuticular absorbable suture and the animals allowed to recover. For acute studies, blood was allowed to circulate through the treated areas for 15 minutes prior to vessel harvest. In some experiments, a distant control vessel, the right carotid artery, was isolated and harvested without any other manipulation.
# A 7F plastic cannula was inserted into the abdominal aorta and the vessels perfused clear with saline followed by fixation at 100 mm Hg pressure with 10% buffered formalin. The vessels were stored in 10% buffered formalin and the samples paraffin-embedded and microtome-sectioned. […]
# [2] = system: [^111In]-labeled platelets; test: [111In]-labeled platelet binding to balloon-injured femoral arteries; type: in vivo, rabbit; settings: for adhesion of [^111In]-labelled platelets to injured vessels: local administration 15 minutes, 15 minutes recirculation, n=6
# Description: Femoral arteries were isolated and balloon injured as described in Example 1. During paired local administration of polythiolated S-nitroso-albumin and polythiolated albumin, [^111In]-labeled platelets were administered intravenously and allowed to circulate after flow was reestablished in the treated arteries. [^111In]-labeled platelet binding was determined by quantification of radioactivity after flow was re-established for a period of 15 minutes. Non-specific [^111In]-labeled platelet binding (Uninjured Carotid Artery) was determined from uninjured carotid artery harvested with femoral arteries. Data are presented as mean +/− SEM per gram of wet tissue weight and are derived from six animals. *P<0.05, PS-BSA vs. pS-NO-BSA.
# Animal Preparation: All animal preparations were performed within the institutional guidelines of the Brockton/West Roxbury Department of Veteran Affairs Medical Center and Boston University Medical Center, and in accordance with the guiding principles of the American Physiological Society. New Zealand white rabbits (3.5-4.2 kg) of either sex were premedicated with 5 mg/kg intramuscular (IM) xylazine hydrochlolide (Miles Pharmaceuticals, Shawnee Mission, Kans.), and 0.1 mg/kg subcutaneous (SC) atropine sulfate (Lyphomed, Deerfield, Ill.) fifteen minutes prior to the induction of anesthesia. Anesthesia was induced with 40 mg/kg IM ketamine hydrochloride (Fort Dodge Laboratories, Fort Dodge, Ind.) and 5 mg/kg IM acepromazine maleate (Aveco Company, Inc., Fort Dodge, Ind.). Additional doses of ketamine hydrochloride were administered as necessary to maintain anesthesia. For survival studies, 100,000 U penicillin G (Apothecon of Bristol-Myers Squibb, Princeton, N.J.), was administered IM perioperatively. The skin over the femoral arteries was next infiltrated with 1% lidocaine (Astra Pharmaceuticals, Inc., Westborough, Mass.) and the common femoral arteries were exposed from the inguinal ligament to the superficial femoral artery. […]
# [3] = system: platelet cGMP; test: Platelet cGMP in platelet-rich plasma exposed ex vivo to treated vessel rings; type: cell-based, human; settings: one-minute exposure of PRP to treated vessel rings, 10 μM isobutylmethylxanthine, n=14
# Description: Rabbit femoral arteries were isolated and balloon-injured as described with reference to FIG. 4. After paired local administration of polythiolated S-nitroso-albumin and polythiolated albumin for 15 minutes, the vessels were harvested and divided into 2 mm rings. The rings were then immersed in 100 μl of platelet-rich plasma containing 10 μM 3-isobutyl-1-methylxanthine and were incubated for 1 minute ex-vivo. An equal volume of ice-cold 10% trichloroacetic acid was added to each aliquot and the sample vortexed. Platelet cGMP assay was then performed as described in “Methods.” Data are expressed as mean +/− SEM. *P<0.05.
# cGMP analysis: Whole blood was obtained from fasting human volunteers and platelet-rich plasma (PRP) was prepared by centrifugation. Platelet counts were determined using a Coulter counter model ZM (Coulter Diagnostics, Hileah, Fla.). After balloon injury and treatment with pS-NO-BSA or PS-BSA, arterial segments were harvested and 2-mm segments were incubated with 100 μl of PRP containing 10 μM isobutylmethylxanthine. After 1 minute, an equal volume of ice-cold 10% trichloroacetic acid was added to each aliquot and the sample vortexed. Enzyme-linked immunoassay of cGMP was then performed (Cayman Chemical Company, Ann Arbor, Mich.). […]
# [4] = system: vessel cGMP; test: Vessel tissue cGMP after local treatment of balloon-injured artery; type: in vivo, rabbit; settings: treated balloon-injured vessel segments, n=3
# Description: cGMP analysis: Whole blood was obtained from fasting human volunteers and platelet-rich plasma (PRP) was prepared by centrifugation. Platelet counts were determined using a Coulter counter model ZM (Coulter Diagnostics, Hileah, Fla.). After balloon injury and treatment with pS-NO-BSA or PS-BSA, arterial segments were harvested and 2-mm segments were incubated with 100 μl of PRP containing 10 μM isobutylmethylxanthine. After 1 minute, an equal volume of ice-cold 10% trichloroacetic acid was added to each aliquot and the sample vortexed. Enzyme-linked immunoassay of cGMP was then performed (Cayman Chemical Company, Ann Arbor, Mich.). Separate 2 mm vessel segments were also assayed for tissue CGMP after treatment with ice-cold 10% trichloroacetic acid and sonication (Heat Systems-Utrasonics, Inc., Plainview, N.Y.).
# [5] = system: proliferating cell nuclear antigen; test: PCNA staining of proliferating cells 7 days after balloon injury; type: in vivo, rabbit; settings: 7 days after injury
# Description: In a separate set of animals, vessels were perfusion-fixed with 10% buffered formalin seven days after injury and processed for analysis of proliferating cells within 12 hours as described above. Sections were stained for proliferating cell nuclear antigen and adjacent sections were stained with hematoxylin and eosin. Five representative sections from each segment were examined. Total nuclei were counted from the hematoxylin and eosin slides and percent PCNA positive cells were defined as the number of PCNA-positive nuclei divided by the total number of nuclei multiplied by 100.
# [6] = 14 days after balloon injury, local delivery 15 minutes
# [7] = 14 days after balloon injury, n=7
substance,measurement,setting,value
"pS-BSA: thiolated bovine serum albumin, non-nitrosylated control for pS-NO-BSA [reference compound]",neointima/media ratio,"[1]; 7 days after injury, n=5",0.068±0.027
same,neointimal area,"[1]; 7 days after injury, n=5",0.258+/−0.19 ×10^5 μm^2
same,neointima/media ratio,[1]; [6],0.85+/−0.122
same,neointimal area,[1]; [6],2.24+/−0.328 ×10^5 μm^2
same,adhesion of [^111In]-labelled platelets to injured vessels,[2],71.3+/−40.4 ×10^3 cpm/gm
same,platelet cGMP,[3],4.11+/−0.9 pmol 10^8 platelets
same,vessel cGMP levels,[4],0.283+/−0.23 pmol/mg protein
same,percent of proliferating (PCNA positive) cells,[5],30.1% +/−5.9
pS-NO-BSA: polythiolated S-nitroso-albumin; thiolated BSA nitrosylated with NaNO2 in HCl,neointima/media ratio,"[1]; 7 days after injury, n=5",0.032±0.005
same,neointimal area,"[1]; 7 days after injury, n=5",0.124±0.06 ×10^5 μm^2
same,neointima/media ratio,[1]; [6],0.196 +/−0.66
same,neointimal area,[1]; [6],0.41+/−0.11 ×10^5 μm^2
same,reduction of neointima/media ratio vs control,[1]; [7],77%
same,reduction of neointimal area vs control,[1]; [7],81%
same,adhesion of [^111In]-labelled platelets to injured vessels,[2],16.3+/−6.2 ×10^3 cpm/gm
same,reduction of platelet adhesion compared to control,"[2]; local administration, injured femoral artery",over four-fold
same,platelet cGMP,[3],19.9+/−3.3 pmol 10^8 platelets
same,vessel cGMP levels,[4],0.48+/−0.46 pmol/mg protein
same,percent of proliferating (PCNA positive) cells,[5],37.8% +/−5.9
